Assays:
Type in all cases: in vivo
[1] = test system: Italian ryegrass (Lolium multiflorum); test: Test B pre-/postemergence plant response
In short: (§1)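 Visual scoring from 0 (no effect) to 100 (complete control) against untreated controls was done 13 to 15 days after greenhouse treatment. Chemicals were formulated in a surfactant-containing non-phytotoxic solvent and applied to soil preemergence or to 1- to 4-leaf (2-18 cm) plants postemergence.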

[2] = test system: Russian thistle (Salsola iberica); test: Test B pre-/postemergence plant response; settings: Preemergence
In short: as §1

[3] = test system: bermudagrass (Cynodon dactylon); test: Test B pre-/postemergence plant response; settings: for Bermudagrass plant response rating: 8 g ai/ha
In short: as §1

[4] = test system: cocklebur (Xanthium strumarium); test: Test B pre-/postemergence plant response; settings: for Cocklebur plant response rating: 8 g ai/ha
In short: as §1

[5] = test system: eastern black (E.B.) nightshade (Solanum ptycanthum); test: Test B pre-/postemergence plant response; settings: Preemergence
In short: as §1

[6] = test system: goosegrass (Eleusine indica); test: Test B pre-/postemergence plant response
In short: as §1

[7] = test system: green foxtail (Setaria viridis); test: Test B pre-/postemergence plant response
In short: as §1

[8] = test system: johnsongrass (Sorghum halepense); test: Test B pre-/postemergence plant response
In short: as §1

[9] = test system: large crabgrass (Digitaria sanguinalis); test: Test B pre-/postemergence plant response
In short: as §1

[10] = test system: morningglory (Ipomoea coccinea); test: Test B pre-/postemergence plant response
In short: as §1

soybean (Glycine max) = test: Test B pre-/postemergence plant response
In short: as §1

[11] = test system: surinam grass (Brachiaria decumbens); test: Test B pre-/postemergence plant response
In short: as §1

[12] = test system: wheat (Triticum aestivum); test: Test B pre-/postemergence plant response
In short: as §1

[13] = test system: chickweed (Stellaria media); test: Test B postemergence plant response; settings: for Plant response rating, Chickweed: Postemergence
In short: (§2)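 Visual injury ratings on a 0–100 scale, where 100 means complete control, were made 13 to 15 days after postemergence treatment of greenhouse-grown plants at the 1- to 4-leaf stage.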

[14] = test system: windgrass (Apera spica-venti); test: Test B postemergence plant response; settings: for Plant response rating, Windgrass: Postemergence
In short: as §2

[15] = test system: winter barley (Hordeum vulgare); test: Test B postemergence plant response; settings: for Plant response rating, Barley: Postemergence, scale 0 to 100, 0 no effect, 100 complete control
In short: as §2

[16] = 8 g ai/ha, postemergence, 0-100 scale
[17] = Postemergence, 16 g ai/ha, scale 0 to 100
[18] = Postemergence, 31 g ai/ha, scale 0 to 100
[19] = Postemergence, 62 g ai/ha, scale 0 to 100, 0 no effect, 100 complete control
[20] = Preemergence, 31 g ai/ha, scale 0 to 100 (0 no effect, 100 complete control)
[21] = Preemergence, 62 g ai/ha, scale 0 to 100
[22] = Preemergence, 8 g ai/ha, scale 0 to 100
[23] = Preemergence, 16 g ai/ha, scale 0 to 100
[24] = 31 g ai/ha, scale 0 to 100 (0 no effect, 100 complete control)
[25] = Preemergence, 16 g ai/ha, scale 0 to 100 (0 no effect, 100 complete control)
[26] = Preemergence, 31 g ai/ha, 0 to 100 scale, 0 no effect, 100 complete control
[27] = Preemergence, 62 g ai/ha, 0 to 100 scale, 0 no effect, 100 complete control
[28] = 62 g ai/ha, scale 0 to 100, 0 no effect, 100 complete control

With Cc1cc(-c2ccc(Cl)cc2)nn1-c1c(OC(=O)Oc2ccccc2)cnn(C)c1=O [Compound 54] the “Ryegrass, Italian plant response rating” value [1, 16] was 75, the “Plant response rating, Ryegrass, Italian” value [1, 17] was 95 and the “Plant response rating, Ryegrass, Italian” value [1, 18] was 95. For the same molecule, the “Plant response rating, Ryegrass, Italian” value [1, 19] was 100, the “Plant response rating, Ryegrass, Italian” value [1, 20] was 90 and the “Plant response rating, Ryegrass, Italian” value [1, 21] was 100. The “Ryegrass, Italian plant response rating” value [1, 22] was 20, the “Ryegrass, Italian plant response rating” value [1, 23] was 90 and the “Plant response rating, Russian Thistle” value [2, 24] was 0. For the same molecule, the “Plant response rating, Russian Thistle” value ([2]; 62 g ai/ha, scale 0 to 100) was 0, the “Russian Thistle plant response rating” value ([2]; 8 g ai/ha, scale 0 to 100) was 0 and the “Russian Thistle plant response rating” value ([2]; 16 g ai/ha, scale 0 to 100) was 0. For the same molecule, the “Bermudagrass plant response rating” value ([3]; postemergence, 0-100 scale) was 100, the “Plant response rating, Bermudagrass” value [3, 17] was 100 and the “Plant response rating, Bermudagrass” value [3, 18] was 100. For the same molecule, the “Plant response rating, Bermudagrass” value [3, 19] was 100, the “Bermudagrass plant response rating” value ([3]; Preemergence, scale 0 to 100 (0 no effect, 100 complete control)) was 0 and the “Plant response rating, Bermudagrass” value [3, 25] was 0. For the same molecule, the “Plant response rating, Bermudagrass” value [3, 26] was 0, the “Plant response rating, Bermudagrass” value [3, 21] was 0 and the “Cocklebur plant response rating” value ([4]; postemergence, 0-100 scale) was 0. The “Plant response rating, Cocklebur” value [4, 17] was 0, the “Plant response rating, Cocklebur” value [4, 18] was 0 and the “Plant response rating, Cocklebur” value [4, 19] was 0. The “Plant response rating, Cocklebur” value [4, 25] was 0, the “Plant response rating, Cocklebur” value [4, 26] was 0 and the “Plant response rating, Cocklebur” value [4, 21] was 0. For the same molecule, the “Cocklebur plant response rating” value ([4]; Preemergence, scale 0 to 100) was 0, the “Plant response rating, Nightshade, E. B.” value [5, 24] was 0 and the “Plant response rating, Nightshade, E. B.” value ([5]; 62 g ai/ha, scale 0 to 100) was 0. The “Nightshade, E. B. plant response rating” value ([5]; 8 g ai/ha, scale 0 to 100) was 0, the “Nightshade, E. B. plant response rating” value ([5]; 16 g ai/ha, scale 0 to 100) was 0 and the “Goosegrass plant response rating” value [6, 16] was 55. The “Plant response rating, Goosegrass” value [6, 17] was 65, the “Plant response rating, Goosegrass” value [6, 18] was 70 and the “Plant response rating, Goosegrass” value [6, 19] was 98. The “Plant response rating, Goosegrass” value [6, 26] was 0, the “Plant response rating, Goosegrass” value [6, 21] was 0 and the “Goosegrass plant response rating” value [6, 22] was 0. For the same molecule, the “Goosegrass plant response rating” value [6, 23] was 0, the “Foxtail, Green plant response rating” value [7, 16] was 70 and the “Plant response rating, Foxtail, Green” value [7, 17] was 95. The “Plant response rating, Foxtail, Green” value [7, 18] was 95, the “Plant response rating, Foxtail, Green” value [7, 19] was 100 and the “Plant response rating, Foxtail, Green” value [7, 26] was 100. The “Plant response rating, Foxtail, Green” value [7, 21] was 100, the “Foxtail, Green plant response rating” value [7, 22] was 55 and the “Foxtail, Green plant response rating” value [7, 23] was 95. The “Johnsongrass plant response rating” value [8, 16] was 0, the “Plant response rating, Johnsongrass” value [8, 17] was 25 and the “Plant response rating, Johnsongrass” value [8, 18] was 80. The “Plant response rating, Johnsongrass” value [8, 19] was 100, the “Plant response rating, Johnsongrass” value [8, 26] was 75 and the “Plant response rating, Johnsongrass” value [8, 21] was 90. For the same molecule, the “Johnsongrass plant response rating” value [8, 22] was 0, the “Johnsongrass plant response rating” value [8, 23] was 40 and the “Crabgrass, Large plant response rating” value [9, 16] was 65. For the same molecule, the “Plant response rating, Crabgrass, Large” value [9, 17] was 85, the “Plant response rating, Crabgrass, Large” value [9, 18] was 98 and the “Plant response rating, Crabgrass, Large” value [9, 19] was 98. The “Plant response rating, Crabgrass, Large” value [9, 26] was 0, the “Plant response rating, Crabgrass, Large” value [9, 21] was 0 and the “Crabgrass, Large plant response rating” value [9, 22] was 0. For the same molecule, the “Crabgrass, Large plant response rating” value [9, 23] was 0, the “Morningglory plant response rating” value [10, 16] was 0 and the “Plant response rating, Morningglory” value [10, 17] was 0. The “Plant response rating, Morningglory” value [10, 18] was 0, the “Plant response rating, Morningglory” value [10, 19] was 0 and the “Plant response rating, Morningglory” value [10, 20] was 0. For the same molecule, the “Plant response rating, Morningglory” value [10, 21] was 0, the “Morningglory plant response rating” value [10, 22] was 0 and the “Morningglory plant response rating” value [10, 23] was 0. For the same molecule, the “Soybean plant response rating” value (soybean (Glycine max); [16]) was 0, the “Plant response rating, Soybean” value (soybean (Glycine max); [17]) was 0 and the “Plant response rating, Soybean” value (soybean (Glycine max); [18]) was 0. The “Plant response rating, Soybean” value (soybean (Glycine max); [19]) was 0, the “Plant response rating, Soybean” value (soybean (Glycine max); [20]) was 0 and the “Plant response rating, Soybean” value (soybean (Glycine max); [21]) was 0. The “Soybean plant response rating” value (soybean (Glycine max); [22]) was 0, the “Soybean plant response rating” value (soybean (Glycine max); [23]) was 0 and the “Surinam Grass plant response rating” value [11, 16] was 50. The “Plant response rating, Surinam Grass” value [11, 17] was 95, the “Plant response rating, Surinam Grass” value [11, 18] was 98 and the “Plant response rating, Surinam Grass” value [11, 19] was 100. For the same molecule, the “Plant response rating, Surinam Grass” value [11, 20] was 55, the “Plant response rating, Surinam Grass” value [11, 27] was 85 and the “Surinam Grass plant response rating” value [11, 22] was 0. For the same molecule, the “Surinam Grass plant response rating” value [11, 23] was 0, the “Wheat plant response rating” value [12, 16] was 0 and the “Plant response rating, Wheat” value [12, 17] was 30. For the same molecule, the “Plant response rating, Wheat” value [12, 18] was 60, the “Plant response rating, Wheat” value [12, 19] was 60 and the “Plant response rating, Wheat” value [12, 20] was 10. For the same molecule, the “Plant response rating, Wheat” value [12, 27] was 50, the “Wheat plant response rating” value [12, 23] was 0 and the “Chickweed plant response rating” value [13, 16] was 0. The “Plant response rating, Chickweed” value ([13]; 16 g ai/ha, scale 0 to 100) was 0, the “Plant response rating, Chickweed” value ([13]; 31 g ai/ha, scale 0 to 100) was 0 and the “Plant response rating, Chickweed” value [13, 28] was 0. The “Windgrass plant response rating” value [14, 16] was 0, the “Plant response rating, Windgrass” value ([14]; 16 g ai/ha, scale 0 to 100) was 20 and the “Plant response rating, Windgrass” value ([14]; 31 g ai/ha, scale 0 to 100) was 20. The “Plant response rating, Windgrass” value [14, 28] was 80, the “Barley plant response rating” value [15, 16] was 0 and the “Plant response rating, Barley” value ([15]; 16 g ai/ha) was 0. The “Plant response rating, Barley” value ([15]; 31 g ai/ha) was 0 and the “Plant response rating, Barley” value ([15]; 62 g ai/ha) was 0.

Source: patent US20100267561A1, “HERBICIDAL PYRIDAZINONE DERIVATIVES” (priority 2007, published 2010)
